Reference: US12059420B2 (BRISTOL-MYERS SQUIBB COMPANY, priority 2018, dated 2024)

Biological target: T1, human IDO1 (Homo sapiens, UniProt P14902)
T1 construct: expressed in transfected cells
Assay: IDO inhibition assay in HEK293 cells stably expressing human IDO1 (kynurenine production, Ehrlich reagent, absorbance 490 nm)
Type: cell-based
Conditions: 20 hours incubation with compound, 500 nM reference standard = 100% inhibition, read-out: IDO1 HEK Human IC50
Summary of the method: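 Kynurenine output of stably IDO1-transfected HEK293 cells was measured by absorbance at 490 nm after mixing supernatant with 0.2% Ehrlich reagent, following TCA stop (0.2% final, 50° C., 30 min). Cells were incubated 20 hours with compound. Inhibition was scaled between DMSO and 500 nM reference standard.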

T1 sequence (P14902 whole entry): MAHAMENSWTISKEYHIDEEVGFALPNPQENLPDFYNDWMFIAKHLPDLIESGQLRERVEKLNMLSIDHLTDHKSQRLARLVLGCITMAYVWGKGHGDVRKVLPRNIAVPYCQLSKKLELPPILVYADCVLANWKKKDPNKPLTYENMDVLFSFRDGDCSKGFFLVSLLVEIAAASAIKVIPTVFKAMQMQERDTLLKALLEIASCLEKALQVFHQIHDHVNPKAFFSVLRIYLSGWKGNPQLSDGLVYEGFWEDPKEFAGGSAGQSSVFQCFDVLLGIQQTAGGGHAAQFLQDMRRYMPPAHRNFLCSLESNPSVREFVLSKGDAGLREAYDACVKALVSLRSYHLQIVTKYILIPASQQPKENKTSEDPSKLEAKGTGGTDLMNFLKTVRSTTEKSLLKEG

IC50 [µM]	SMILES
0.0526	CCCN(Cc1ccccc1)c1cc(NC(=O)Cc2ccc(C(C)C)cc2)cc(-c2ccccc2-c2nn[nH]n2)n1 [Example 220, N-(2-(2-(2H-tetrazol-5-yl)phenyl)-6-(benzyl(propyl)amino)pyridin-4-yl)-2-(4-isopropylphenyl)acetamide]
0.249	CCCN(Cc1ccccc1)c1cc(NC(=O)Cc2cn(C)c3ccccc23)cc(-c2ccccc2-c2nn[nH]n2)n1 [Example 221, N-(2-(2-(2H-tetrazol-5-yl)phenyl)-6-(benzyl(propyl)amino)pyridin-4-yl)-2-(1-methyl-1H-indol-3-yl)acetamide]
3.43	CCCN(Cc1ccccc1)c1cc(NC(=O)Cn2ccnc2)cc(-c2ccccc2-c2nn[nH]n2)n1 [Example 222, N-(2-(2-(2H-tetrazol-5-yl)phenyl)-6-(benzyl(propyl)amino)pyridin-4-yl)-2-(1H-imidazol-1-yl)acetamide]
0.965	CCCN(Cc1ccccc1)c1cc(NC(=O)C2(c3ccccc3)CC2)cc(-c2ccccc2-c2nn[nH]n2)n1 [Example 223, N-(2-(2-(2H-tetrazol-5-yl)phenyl)-6-(benzyl(propyl)amino)pyridin-4-yl)-1-phenylcyclopropanecarboxamide]
3	CCCN(Cc1ccccc1)c1cc(NC(=O)C2(c3cccc(F)c3)CC2)cc(-c2ccccc2-c2nn[nH]n2)n1 [Example 224, N-(2-(2-(2H-tetrazol-5-yl)phenyl)-6-(benzyl(propyl)amino)pyridin-4-yl)-1-(3-fluorophenyl)cyclopropanecarboxamide]
0.364	CCCN(Cc1ccccc1)c1cc(NC(=O)Cc2ccccc2)cc(-c2ccccc2-c2nn[nH]n2)n1 [Example 225, N-(2-(2-(2H-tetrazol-5-yl)phenyl)-6-(benzyl(propyl)amino)pyridin-4-yl)-2-phenylacetamide]
3.36	CCCN(Cc1ccccc1)c1cc(NC(=O)Cc2cccnc2)cc(-c2ccccc2-c2nn[nH]n2)n1 [Example 226, N-(2-(2-(2H-tetrazol-5-yl)phenyl)-6-(benzyl(propyl)amino)pyridin-4-yl)-2-(pyridin-3-yl)acetamide]
3.35	CCCN(Cc1ccccc1)c1cc(NC(=O)Cc2ccc(C#N)cc2)cc(-c2ccccc2-c2nn[nH]n2)n1 [Example 227, N-(2-(2-(2H-tetrazol-5-yl)phenyl)-6-(benzyl(propyl)amino)pyridin-4-yl)-2-(4-cyanophenyl)acetamide]
0.669	CC(C)CN(Cc1ccccc1)c1cc(NC(=O)Cc2ccc(F)c(F)c2)cc(-c2ccccc2-c2nnn[nH]2)n1 [Example 228, N-(2-(2-(1H-tetrazol-5-yl)phenyl)-6-(benzyl(isobutyl)amino)pyridin-4-yl)-2-(3,4-difluorophenyl)acetamide]
0.188	CC(C)CN(Cc1ccccc1)c1cc(NC(=O)Cc2ccc(F)cc2F)cc(-c2ccccc2-c2nnn[nH]2)n1 [Example 229, N-(2-(2-(1H-tetrazol-5-yl)phenyl)-6-(benzyl(isobutyl)amino)pyridin-4-yl)-2-(2,4-difluorophenyl)acetamide]
0.139	CC(C)CN(Cc1ccccc1)c1cc(NC(=O)Cc2ccc(C(C)C)cc2)cc(-c2ccccc2-c2nnn[nH]2)n1 [Example 230, N-(2-(2-(1H-tetrazol-5-yl)phenyl)-6-(benzyl(isobutyl)amino)pyridin-4-yl)-2-(4-isopropylphenyl)acetamide]
0.675	Cc1cc(CC(=O)Nc2cc(-c3ccccc3-c3nnn[nH]3)nc(N(Cc3ccccc3)CC(C)C)c2)on1 [Example 231, N-(2-(2-(1H-tetrazol-5-yl)phenyl)-6-(benzyl(isobutyl)amino)pyridin-4-yl)-2-(3-methylisoxazol-5-yl)acetamide]
0.961	CC(C)CN(Cc1ccccc1)c1cc(NC(=O)Cc2ccc(F)c(Cl)c2)cc(-c2ccccc2-c2nnn[nH]2)n1 [Example 233, N-(2-(2-(1H-tetrazol-5-yl)phenyl)-6-(benzyl(isobutyl)amino)pyridin-4-yl)-2-(3-chloro-4-fluorophenyl)acetamide]
0.4	CC(C)CN(Cc1ccccc1)c1cc(NC(=O)Cc2ccc(OC(F)(F)F)cc2)cc(-c2ccccc2-c2nnn[nH]2)n1 [Example 235, N-(2-(2-(1H-tetrazol-5-yl)phenyl)-6-(benzyl(isobutyl)amino)pyridin-4-yl)-2-(4-(trifluoromethoxy)phenyl)acetamide]

Second part, the molecule before the results:

SMILES	IC50 [µM]
COc1ccc(Nc2cc(-c3ccccc3-c3nnn[nH]3)nc(N(Cc3ccccc3)CC(C)C)c2)cc1C(N)=O [Example 198, 5-((2-(2-(1H-tetrazol-5-yl)phenyl)-6-(benzyl(isobutyl)amino)pyridin-4-yl)amino)-2-methoxybenzamide]	2.96
CCCN(Cc1ccccc1)c1cc(NC(=O)Cc2cncc(Br)c2)cc(-c2ccccc2-c2nn[nH]n2)n1 [Example 199, N-(2-(2-(2H-tetrazol-5-yl)phenyl)-6-(benzyl(propyl)amino)-yl)-2-(5-bromopyridin-3-yl)acetamide]	0.239
CCCN(Cc1ccccc1)c1cc(NC(=O)Cc2cccc3ccccc23)cc(-c2ccccc2-c2nn[nH]n2)n1 [Example 200, N-(2-(2-(2H-tetrazol-5-yl)phenyl)-6-(benzyl(propyl)amino)pyridin-4-yl)-2-(naphthalen-1-yl)acetamide]	0.0824
CCCN(Cc1ccccc1)c1cc(NC(=O)Cc2ccc3ccccc3c2)cc(-c2ccccc2-c2nn[nH]n2)n1 [Example 201, N-(2-(2-(2H-tetrazol-5-yl)phenyl)-6-(benzyl(propyl)amino)pyridin-4-yl)-2-(naphthalen-2-yl)acetamide]	0.0342
CCCN(Cc1ccccc1)c1cc(NC(=O)Cc2ccccc2F)cc(-c2ccccc2-c2nn[nH]n2)n1 [Example 202, N-(2-(2-(2H-tetrazol-5-yl)phenyl)-6-(benzyl(propyl)amino)pyridin-4-yl)-2-(2-fluorophenyl)acetamide]	0.202
CCCN(Cc1ccccc1)c1cc(NC(=O)Cc2ccccc2OC)cc(-c2ccccc2-c2nn[nH]n2)n1 [Example 203, N-(2-(2-(2H-tetrazol-5-yl)phenyl)-6-(benzyl(propyl)amino)pyridin-4-yl)-2-(2-methoxyphenyl)acetamide]	0.305
CCCN(Cc1ccccc1)c1cc(NC(=O)Cc2cc(OC)ccc2OC)cc(-c2ccccc2-c2nn[nH]n2)n1 [Example 204, N-(2-(2-(2H-tetrazol-5-yl)phenyl)-6-(benzyl(propyl)amino)pyridin-4-yl)-2-(2,5-dimethoxyphenyl)acetamide]	0.159
CCCN(Cc1ccccc1)c1cc(NC(=O)Cc2ccccc2C(F)(F)F)cc(-c2ccccc2-c2nn[nH]n2)n1 [Example 205, N-(2-(2-(2H-tetrazol-5-yl)phenyl)-6-(benzyl(propyl)amino)pyridin-4-yl)-2-(2-(trifluoromethyl)phenyl)acetamide]	0.0802
CCCN(Cc1ccccc1)c1cc(NC(=O)Cc2cccs2)cc(-c2ccccc2-c2nn[nH]n2)n1 [Example 206, N-(2-(2-(2H-tetrazol-5-yl)phenyl)-6-(benzyl(propyl)amino)pyridin-4-yl)-2-(thiophen-2-yl)acetamide]	0.323
CCCN(Cc1ccccc1)c1cc(NC(=O)Cc2c[nH]cn2)cc(-c2ccccc2-c2nn[nH]n2)n1 [Example 207, N-(2-(2-(2H-tetrazol-5-yl)phenyl)-6-(benzyl(propyl)amino)pyridin-4-yl)-2-(1H-imidazol-4-yl)acetamide]	3.43
CCCN(Cc1ccccc1)c1cc(NC(=O)Cc2cc(OC)cc(OC)c2)cc(-c2ccccc2-c2nn[nH]n2)n1 [Example 208, N-(2-(2-(2H-tetrazol-5-yl)phenyl)-6-(benzyl(propyl)amino)pyridin-4-yl)-2-(3,5-dimethoxyphenyl)acetamide]	0.544
CCCN(Cc1ccccc1)c1cc(NC(=O)Cc2cnccn2)cc(-c2ccccc2-c2nn[nH]n2)n1 [Example 210, N-(2-(2-(2H-tetrazol-5-yl)phenyl)-6-(benzyl(propyl)amino)pyridin-4-yl)-2-(pyrazin-2-yl)acetamide]	1.71
CCCN(Cc1ccccc1)c1cc(NC(=O)Cc2csc(C)n2)cc(-c2ccccc2-c2nn[nH]n2)n1 [Example 211, N-(2-(2-(2H-tetrazol-5-yl)phenyl)-6-(benzyl(propyl)amino)pyridin-4-yl)-2-(2-methylthiazol-4-yl)acetamide]	0.906
CCCN(Cc1ccccc1)c1cc(NC(=O)C(F)c2ccccc2)cc(-c2ccccc2-c2nn[nH]n2)n1 (stereo not drawn) [Example 212, N-(2-(2-(2H-tetrazol-5-yl)phenyl)-6-(benzyl(propyl)amino)pyridin-4-yl)-2-fluoro-2-phenylacetamide]	0.224
CCCN(Cc1ccccc1)c1cc(NC(=O)Cc2c(C)noc2C)cc(-c2ccccc2-c2nn[nH]n2)n1 [Example 213, N-(2-(2-(2H-tetrazol-5-yl)phenyl)-6-(benzyl(propyl)amino)pyridin-4-yl)-2-(3,5-dimethylisoxazol-4-yl)acetamide]	0.651
CCCN(Cc1ccccc1)c1cc(NC(=O)Cc2csc3ccccc23)cc(-c2ccccc2-c2nn[nH]n2)n1 [Example 216, N-(2-(2-(2H-tetrazol-5-yl)phenyl)-6-(benzyl(propyl)amino)pyridin-4-yl)-2-(benzo[b]thiophen-3-yl)acetamide]	0.0768
CCCN(Cc1ccccc1)c1cc(NC(=O)Cc2cccc(Br)c2)cc(-c2ccccc2-c2nn[nH]n2)n1 [Example 217, N-(2-(2-(2H-tetrazol-5-yl)phenyl)-6-(benzyl(propyl)amino)pyridin-4-yl)-2-(3-bromophenyl)acetamide]	0.239
CCCN(Cc1ccccc1)c1cc(NC(=O)CC2CCCC2)cc(-c2ccccc2-c2nn[nH]n2)n1 [Example 218, N-(2-(2-(2H-tetrazol-5-yl)phenyl)-6-(benzyl(propyl)amino)pyridin-4-yl)-2-cyclopentylacetamide]	1.97
CCCN(Cc1ccccc1)c1cc(NC(=O)Cc2cccc(OC(F)(F)F)c2)cc(-c2ccccc2-c2nn[nH]n2)n1 [Example 219]	0.0598
